Results on three molecules are retold here after patent publication US20250368678A1, “19-NOR-C3,3-DISUBSTITUTED C21-AZACYCLO-S[…] AND METHOD FOR USING SAME” (SHANDONG LUYE PHARMACEUTICAL CO., LTD., priority 2022, published 2025).

Broadly, the Emax is the size of the effect at its maximum, as opposed to the concentration needed. One may read the EC50 as the concentration at which the effect is half-maximal. A higher EC50 goes with a need for much substance. In general, CLint scaled refers to the capacity of the preparation to metabolise the compound, expressed as a volume cleared per time. A higher CLint scaled goes with faster metabolism. The term half-life denotes the time needed for the level to fall by half in the phase considered. A lower half-life goes with rapid decline.

T2 sequence (P14867 28-456): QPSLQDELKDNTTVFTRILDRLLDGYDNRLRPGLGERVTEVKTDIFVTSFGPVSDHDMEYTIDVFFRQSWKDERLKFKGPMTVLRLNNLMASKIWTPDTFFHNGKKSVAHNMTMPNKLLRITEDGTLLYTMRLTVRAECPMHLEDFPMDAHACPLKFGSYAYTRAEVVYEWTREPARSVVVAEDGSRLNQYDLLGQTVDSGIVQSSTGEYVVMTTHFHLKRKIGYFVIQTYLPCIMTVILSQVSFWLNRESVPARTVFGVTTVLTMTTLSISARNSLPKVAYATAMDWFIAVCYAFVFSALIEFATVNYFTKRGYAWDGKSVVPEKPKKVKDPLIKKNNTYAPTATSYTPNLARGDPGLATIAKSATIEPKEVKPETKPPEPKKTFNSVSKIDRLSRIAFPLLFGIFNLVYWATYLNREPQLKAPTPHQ
T2 sequence (P47870 25-512 limits assumed): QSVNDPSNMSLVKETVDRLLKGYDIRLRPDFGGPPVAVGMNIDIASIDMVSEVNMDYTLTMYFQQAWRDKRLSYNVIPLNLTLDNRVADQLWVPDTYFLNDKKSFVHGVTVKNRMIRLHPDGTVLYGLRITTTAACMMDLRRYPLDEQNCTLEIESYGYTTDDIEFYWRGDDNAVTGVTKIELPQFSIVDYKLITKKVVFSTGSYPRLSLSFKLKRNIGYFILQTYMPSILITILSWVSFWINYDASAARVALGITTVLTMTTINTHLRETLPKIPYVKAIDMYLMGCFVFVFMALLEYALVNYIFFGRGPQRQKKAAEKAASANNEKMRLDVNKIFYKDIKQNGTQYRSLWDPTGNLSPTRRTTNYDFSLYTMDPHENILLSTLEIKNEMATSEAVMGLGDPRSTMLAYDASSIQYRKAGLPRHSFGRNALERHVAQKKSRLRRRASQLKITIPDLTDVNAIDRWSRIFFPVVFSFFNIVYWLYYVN
T2 sequence (P18507 40-475 partner): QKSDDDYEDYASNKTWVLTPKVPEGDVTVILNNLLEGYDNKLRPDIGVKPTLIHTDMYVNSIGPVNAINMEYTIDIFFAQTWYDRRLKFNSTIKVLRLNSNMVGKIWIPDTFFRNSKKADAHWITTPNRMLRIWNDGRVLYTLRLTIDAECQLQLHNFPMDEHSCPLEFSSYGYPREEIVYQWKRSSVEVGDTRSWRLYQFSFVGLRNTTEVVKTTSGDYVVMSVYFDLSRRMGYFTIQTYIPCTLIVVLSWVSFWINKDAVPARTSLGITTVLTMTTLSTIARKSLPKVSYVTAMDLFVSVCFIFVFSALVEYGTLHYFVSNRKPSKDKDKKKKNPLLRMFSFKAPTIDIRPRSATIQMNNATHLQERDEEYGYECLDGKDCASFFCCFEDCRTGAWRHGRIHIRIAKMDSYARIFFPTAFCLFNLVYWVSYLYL

The target of one data set is T1, α4β3δ GABA receptors (α4β3δ-HEK-FlpIn-TRex stable cell strain) (Homo sapiens, UniProt P28472+P48169).
T1 construct: expressed in transfected cells
T1 sequence (P48169 36-554): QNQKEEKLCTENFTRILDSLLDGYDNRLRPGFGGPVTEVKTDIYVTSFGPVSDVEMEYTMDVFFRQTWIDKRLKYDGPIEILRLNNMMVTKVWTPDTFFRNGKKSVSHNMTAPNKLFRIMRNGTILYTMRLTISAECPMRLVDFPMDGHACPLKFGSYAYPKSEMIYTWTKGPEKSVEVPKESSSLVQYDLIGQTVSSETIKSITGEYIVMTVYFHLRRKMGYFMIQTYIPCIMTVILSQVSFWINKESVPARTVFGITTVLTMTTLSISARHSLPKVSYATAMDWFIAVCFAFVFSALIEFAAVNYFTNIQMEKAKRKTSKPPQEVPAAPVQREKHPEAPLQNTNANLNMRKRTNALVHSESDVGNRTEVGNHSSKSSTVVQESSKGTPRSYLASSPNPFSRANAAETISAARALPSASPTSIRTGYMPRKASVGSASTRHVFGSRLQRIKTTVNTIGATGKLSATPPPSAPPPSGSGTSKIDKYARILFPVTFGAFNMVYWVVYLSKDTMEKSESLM
T1 sequence (P28472 26-473): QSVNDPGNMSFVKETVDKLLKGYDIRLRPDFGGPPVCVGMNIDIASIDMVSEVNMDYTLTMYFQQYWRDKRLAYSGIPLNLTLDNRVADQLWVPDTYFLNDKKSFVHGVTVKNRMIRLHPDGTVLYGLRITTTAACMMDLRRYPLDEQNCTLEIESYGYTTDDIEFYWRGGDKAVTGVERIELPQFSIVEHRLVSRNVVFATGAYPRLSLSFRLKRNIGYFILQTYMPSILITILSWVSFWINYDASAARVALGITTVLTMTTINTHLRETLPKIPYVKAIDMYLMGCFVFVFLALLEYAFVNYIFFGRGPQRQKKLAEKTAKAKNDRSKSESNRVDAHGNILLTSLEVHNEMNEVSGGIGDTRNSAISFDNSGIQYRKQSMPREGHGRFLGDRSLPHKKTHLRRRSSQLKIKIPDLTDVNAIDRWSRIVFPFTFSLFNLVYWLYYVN
T1 sequence (O14764 25-452 partner): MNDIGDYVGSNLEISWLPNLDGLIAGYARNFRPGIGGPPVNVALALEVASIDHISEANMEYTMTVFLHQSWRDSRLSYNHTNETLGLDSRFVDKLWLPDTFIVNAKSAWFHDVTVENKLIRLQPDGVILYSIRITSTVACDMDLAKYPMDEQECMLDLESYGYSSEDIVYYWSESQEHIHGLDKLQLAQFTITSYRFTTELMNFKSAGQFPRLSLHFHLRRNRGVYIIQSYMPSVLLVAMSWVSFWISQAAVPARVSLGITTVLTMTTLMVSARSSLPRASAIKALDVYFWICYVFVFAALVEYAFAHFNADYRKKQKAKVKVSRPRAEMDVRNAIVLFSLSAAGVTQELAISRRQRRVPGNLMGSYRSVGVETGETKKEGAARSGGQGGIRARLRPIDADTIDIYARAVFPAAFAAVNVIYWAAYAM
The experiment in a line: Whole-cell patch clamp, extrasynaptic functional activity (positive allosteric regulation of GABA-induced current). The class given is cell-based. The settings on record: patch clamp -60 mV, GABA at EC10-20, α4β3δ-HEK-FlpIn-TRex cells. The method, then: (§1) The α4β3δ-HEK-FlpIn-TRex stable cell strain was cultured in DMEM+10% FBS complete culture medium, with the selective antibiotics being 10 μg/mL Blasticidin, 100 µg/mL Zeocin, 100 µg/mL Hygromycin, and 0.2 μg/mL Puromycin. The α1β2γ2-CHO-TRex stable cell strain was cultured in DMEM/F12+10% FBS complete culture medium, with the selective antibiotics being 10 μg/mL Blasticidin, 100 μg/mL Zeocin, 300 μg/mL Hygromycin, and […] Puromycin.
(§2) The day before the patch clamp experiment, cells were seeded onto 12 mm polylysine-coated coverslips and then cultured in 35 mm culture dishes, and tetracycline ([…]) was added to induce the expression of GABA receptors. The extracellular fluid had the following composition (in mM): 140 NaCl, 3 KCl, 1.5 MgCl2, 2 CaCl2, 10 HEPES, and 10 Glucose. After thorough mixing, NaOH was added to adjust the pH to 7.4, and sucrose was added to adjust the osmotic pressure to 300-320 mOsm. The fluid was stored at 4° C. The electrode internal solution had the following composition (in mM): 145 KCl, 1 MgCl2, 5 EGTA, 10 HEPES, and 5 MgATP. After thorough mixing, KOH was added to adjust the pH to 7.3, and sucrose was added to adjust the osmotic pressure to 290-300 mOsm. The solution was filtered through a […] before use.
(§3) Whole-cell patch clamp recording was mainly employed in this experiment. The membrane potential was clamped at −60 mV, and receptors were activated using GABA at an EC10-20 concentration ([…]). The test compounds were dissolved in 0.1% DMSO, and perfusion was performed for 30 s prior to GABA stimulation. Finally, the positive allosteric regulating effects of the test compounds on α1β2γ2 or α4β3δ were determined.
(§4) The experimental result for each concentration was expressed as a fold increase in the GABA-induced current caused by the compound. […] At least 5 concentrations are tested to obtain a complete EC50 curve and EC50 values. All experiments were repeated on no less than 3 cells, and data processing was completed using GraphPad prism software. The dose-response curves were fitted using the Hill equation, and the half-maximal activating concentration EC50 and Emax were finally obtained.
On the technique in general: Patch clamp records ionic current or voltage across a cell membrane.
`COCCn1ncn(CC(=O)[C@H]2CC[C@H]3[C@@H]4CC[C@@H]5C[C@](C)(O)CC[C@@H]5[C@H]4CC[C@]23C)c1=O` [Compound 31] came in with a maximum response (Emax) of 609%.

Molecule `C[C@@]1(O)CC[C@H]2[C@H](CC[C@@H]3[C@@H]2CC[C@]2(C)[C@@H](C(=O)Cn4cnn(-c5nccs5)c4=O)CC[C@@H]32)C1` [Compound 32] gave an EC50 of 0.126 µM and an Emax of 633%.

`C[C@@]1(O)CC[C@@]2(C)[C@@H](CC[C@@H]3[C@@H]2CC[C@]2(C)[C@@H](C(=O)Cn4cnn(-c5cccc(F)c5)c4=O)CC[C@@H]32)C1` [Compound 33] returned an EC50 of 0.096 µM and a maximal effect (Emax) of 936%.

Test system in another data set: not listed separately
The experiment in a line: In vitro liver microsomal stability assay, human. The class given is in vitro ADME. The settings on record: Human liver microsomes. On the procedure: (§5) 1) Preparation of working solutions of test samples: The test samples were diluted with acetonitrile to 100 M.
(§6) 2) Preparation of a working solution of liver microsomes: liver microsomes were diluted with 100 mM phosphate-buffered saline to 0.56 mg/mL.
(§7) 3) Preparation of a working solution of reduced nicotinamide adenine dinucleotide (NADPH): A proper amount of NADPH was weighed out and diluted with phosphate-buffered saline to 20 mM, and an equal volume of a 60 mM MgCl2 solution was added.
(§8) 4) Preparation of a stop solution: Tolbutamide was diluted with acetonitrile to 20 ng/mL, serving as a stop solution containing an internal standard.
(§9) 1) Incubation anti-adsorption EP tubes were prepared and labeled with species, test/control sample, time points (0, 5, 10, 20, 30, 60 min, Blank60, and NCF60), etc.
(§10) 2) 2 L of test or control sample working solution, diluted with acetonitrile to 100 M, and 178 L of liver microsome working solution were added to each tube. For the Blank60 tube, 2 L of acetonitrile was added instead of a test sample. The tubes were pre-incubated in a 37° C. water bath for about 10 min, with each sample tested in triplicate.
(§11) 3) After the pre-incubation was complete, 20 L of NADPH working solution was added to each tube except for the 0 min and NCF60 tubes to start reactions, and 20 L of phosphate-buffered saline (containing 30 mM MgCl2) was added to the NCF60 tube. In the incubation system, the final concentrations of the test and control samples were 1 M, the final concentration of liver microsomes was 0.5 mg/mL, the final concentration of NADPH was 1 mM, and the final concentration of MgCl2 was 3 mM.
(§12) 4) For the 0 min sample, 600 L of stop solution was added before adding the NADPH working solution. After each sample was incubated for its respective time, 600 L of stop solution was added to stop the reaction.
(§13) 5) After the reaction was stopped, each sample was vortexed for 30 s and then centrifuged at 13,500 rpm for 10 min. 100 L of the supernatant was transferred to an EP tube, and 100 L Milli-Q water was added. The mixture was well mixed by vortexing and analyzed by LC-MS/MS.
(§14) 6) Testosterone and dextromethorphan were used as positive control samples under the same conditions to assess the stability and reliability of the system.
(§15) Parameters of the test samples, including their half-lives, intrinsic clearance rates in liver microsomes, and hepatic intrinsic clearance rates, were calculated based on the percentage of test sample remaining.
A general note: Liver microsomes are vesicles of endoplasmic reticulum, rich in cytochrome P450 enzymes.
`COCCn1ncn(CC(=O)[C@H]2CC[C@H]3[C@@H]4CC[C@@H]5C[C@](C)(O)CC[C@@H]5[C@H]4CC[C@]23C)c1=O` [Compound 31]: the intrinsic metabolic clearance (CLint scaled) at 1 µM stood at 37 mL/min/kg and the half-life at 1 µM was determined as 34.1 min.

Consider `C[C@@]1(O)CC[C@H]2[C@H](CC[C@@H]3[C@@H]2CC[C@]2(C)[C@@H](C(=O)Cn4cnn(-c5nccs5)c4=O)CC[C@@H]32)C1` [Compound 32], for which the intrinsic metabolic clearance (CLint scaled) at 1 µM came to 19 mL/min/kg and the half-life at 1 µM worked out at 64.8 min.

`C[C@@]1(O)CC[C@@]2(C)[C@@H](CC[C@@H]3[C@@H]2CC[C@]2(C)[C@@H](C(=O)Cn4cnn(-c5cccc(F)c5)c4=O)CC[C@@H]32)C1` [Compound 33]: the CLint scaled at 1 µM is under 6.7 mL/min/kg and the half-life at 1 µM is over 186 min.

The data set is the same for the next values; noted with them: Human liver microsomes 0.5 mg/mL, NADPH.
As to `COCCn1ncn(CC(=O)[C@H]2CC[C@H]3[C@@H]4CC[C@@H]5C[C@](C)(O)CC[C@@H]5[C@H]4CC[C@]23C)c1=O` [Compound 31], the “Remaining amount % at 60 min” value is listed as 28.5%.

For the molecule `C[C@@]1(O)CC[C@H]2[C@H](CC[C@@H]3[C@@H]2CC[C@]2(C)[C@@H](C(=O)Cn4cnn(-c5nccs5)c4=O)CC[C@@H]32)C1` [Compound 32], the “Remaining amount % at 60 min” value is reported as 66.8%.

Turning to `C[C@@]1(O)CC[C@@]2(C)[C@@H](CC[C@@H]3[C@@H]2CC[C@]2(C)[C@@H](C(=O)Cn4cnn(-c5cccc(F)c5)c4=O)CC[C@@H]32)C1` [Compound 33], the “Remaining amount % at 60 min” value was found to be 85.8%.

Still in this data set, the particulars now being: Human liver microsomes; read-out: CLint(mic).
On to `COCCn1ncn(CC(=O)[C@H]2CC[C@H]3[C@@H]4CC[C@@H]5C[C@](C)(O)CC[C@@H]5[C@H]4CC[C@]23C)c1=O` [Compound 31], for which the microsomal CLint at 1 µM is 41 µL/min/mg.

`C[C@@]1(O)CC[C@H]2[C@H](CC[C@@H]3[C@@H]2CC[C@]2(C)[C@@H](C(=O)Cn4cnn(-c5nccs5)c4=O)CC[C@@H]32)C1` [Compound 32]: the microsomal CLint at 1 µM is 21 µL/min/mg.

Consider `C[C@@]1(O)CC[C@@]2(C)[C@@H](CC[C@@H]3[C@@H]2CC[C@]2(C)[C@@H](C(=O)Cn4cnn(-c5cccc(F)c5)c4=O)CC[C@@H]32)C1` [Compound 33], for which the microsomal CLint at 1 µM is under 7.5 µL/min/mg.

Another data set concerns the target T2, α1β2γ2 GABA receptors (α1β2γ2-CHO-TRex stable cell strain) (Homo sapiens, UniProt P14867+P47870).
T2 construct: expressed in transfected cells
The data set is described as follows: Whole-cell patch clamp, intrasynaptic functional activity (positive allosteric regulation of GABA-induced current). The settings on record: patch clamp -60 mV, GABA at EC10-20, α1β2γ2-CHO-TRex cells. The class given is cell-based. The method, then: as §1, §2, §3, §4
For `COCCn1ncn(CC(=O)[C@H]2CC[C@H]3[C@@H]4CC[C@@H]5C[C@](C)(O)CC[C@@H]5[C@H]4CC[C@]23C)c1=O` [Compound 31], the Emax is 735%.

As to `C[C@@]1(O)CC[C@H]2[C@H](CC[C@@H]3[C@@H]2CC[C@]2(C)[C@@H](C(=O)Cn4cnn(-c5nccs5)c4=O)CC[C@@H]32)C1` [Compound 32], the EC50 came out at 0.33 µM and the Emax was determined as 763%.

`C[C@@]1(O)CC[C@@]2(C)[C@@H](CC[C@@H]3[C@@H]2CC[C@]2(C)[C@@H](C(=O)Cn4cnn(-c5cccc(F)c5)c4=O)CC[C@@H]32)C1` [Compound 33] gave an EC50 of 0.598 µM and a maximal response (Emax) of 495%.

Test system in the next data set: not listed separately
The experiment in a line: In vitro liver microsomal stability assay, rat. The settings on record: Rat liver microsomes. The data set is classed as in vitro ADME. The method, then:
as §5, §6, §7, §8, §9, §10, §11, §12, §13, §14, §15
As to `COCCn1ncn(CC(=O)[C@H]2CC[C@H]3[C@@H]4CC[C@@H]5C[C@](C)(O)CC[C@@H]5[C@H]4CC[C@]23C)c1=O` [Compound 31], the CLint scaled at 1 µM amounted to 234 mL/min/kg and the half-life at 1 µM amounted to 10.7 min.

As to `C[C@@]1(O)CC[C@H]2[C@H](CC[C@@H]3[C@@H]2CC[C@]2(C)[C@@H](C(=O)Cn4cnn(-c5nccs5)c4=O)CC[C@@H]32)C1` [Compound 32], the CLint scaled at 1 µM was found to be 152 mL/min/kg and the half-life at 1 µM amounted to 15.4 min.

In turn, `C[C@@]1(O)CC[C@@]2(C)[C@@H](CC[C@@H]3[C@@H]2CC[C@]2(C)[C@@H](C(=O)Cn4cnn(-c5cccc(F)c5)c4=O)CC[C@@H]32)C1` [Compound 33] had an intrinsic clearance (CLint scaled) at 1 µM of 29 mL/min/kg and a half-life at 1 µM of 85.6 min.

The data set is the same for the next values; noted with them: Rat liver microsomes 0.5 mg/mL, NADPH.
As to `COCCn1ncn(CC(=O)[C@H]2CC[C@H]3[C@@H]4CC[C@@H]5C[C@](C)(O)CC[C@@H]5[C@H]4CC[C@]23C)c1=O` [Compound 31], the “Remaining amount % at 60 min” value was 2.1%.

As to `C[C@@]1(O)CC[C@H]2[C@H](CC[C@@H]3[C@@H]2CC[C@]2(C)[C@@H](C(=O)Cn4cnn(-c5nccs5)c4=O)CC[C@@H]32)C1` [Compound 32], the “Remaining amount % at 60 min” value was 7.7%.

As to `C[C@@]1(O)CC[C@@]2(C)[C@@H](CC[C@@H]3[C@@H]2CC[C@]2(C)[C@@H](C(=O)Cn4cnn(-c5cccc(F)c5)c4=O)CC[C@@H]32)C1` [Compound 33], the “Remaining amount % at 60 min” value was 62.2%.

Staying with this data set, now noted: Rat liver microsomes; read-out: CLint(mic).
As to `COCCn1ncn(CC(=O)[C@H]2CC[C@H]3[C@@H]4CC[C@@H]5C[C@](C)(O)CC[C@@H]5[C@H]4CC[C@]23C)c1=O` [Compound 31], the microsomal CLint at 1 µM was 130 µL/min/mg.

On to `C[C@@]1(O)CC[C@H]2[C@H](CC[C@@H]3[C@@H]2CC[C@]2(C)[C@@H](C(=O)Cn4cnn(-c5nccs5)c4=O)CC[C@@H]32)C1` [Compound 32], for which the microsomal CLint at 1 µM stood at 85 µL/min/mg.

For `C[C@@]1(O)CC[C@@]2(C)[C@@H](CC[C@@H]3[C@@H]2CC[C@]2(C)[C@@H](C(=O)Cn4cnn(-c5cccc(F)c5)c4=O)CC[C@@H]32)C1` [Compound 33], the microsomal CLint at 1 µM was determined as 16 µL/min/mg.
